Assay results taken from patent publication US9328122B2, “7-substituted Hanfangichin B derivative, and preparation method and use thereof” (HANGZHOU BENSHENG PHARMACEUTICAL CO., LTD., priority 2012, dated 2016).
≈ marks a conversion by molar mass, not a printed value.

Tests used:
[1] = system: NB4 (acute promyelocytic leukemia) cells; assay: MTT cell growth inhibition, leukemia cells; type: cell-based; details: Homo sapiens, NB4, 72 h, MTT
In short: (§1)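 MTT read-out of viable cells after 72 h compound exposure at 37° C., 5% CO2; 6000 cells/well in RPMI-1640 + 10% FBS, dosed one day after seeding over a range of concentrations.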

[2] = system: K562/ADR (K562adr, drug-resistant chronic myeloid leukemia) cells; assay: MTT cell growth inhibition, leukemia cells; type: cell-based; details: Homo sapiens, K562/ADR, 72 h, MTT
In short: as §1

[3] = system: Jurkat (acute lymphoblastic leukemia) cells; assay: MTT cell growth inhibition, leukemia cells; type: cell-based, human; details: Homo sapiens, Jurkat, 72 h, MTT
In short: as §1

[4] = system: Kasumi-1 (acute myeloid leukemia M2 type) cells; assay: MTT cell growth inhibition, leukemia cells; type: cell-based, human; details: Homo sapiens, Kasumi-1, 72 h, MTT
In short: as §1

[5] = system: H9 (acute lymphoblastic leukemia) cells; assay: MTT cell growth inhibition, leukemia cells; type: cell-based, human; details: Homo sapiens, H9, 72 h, MTT
In short: as §1

[6] = system: RPMI 8226 (multiple myeloma) cells; assay: MTT cell growth inhibition, multiple myeloma cells; type: cell-based, human; details: Homo sapiens, RPMI 8226, 72 h, MTT
In short: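 Viable-cell readout by MTT after 72 h exposure (37° C, 5% CO2) of RPMI 8226 cells to a range of compound concentrations, added one day post-seeding. Cells were seeded at 6000 per well in RPMI-1640 containing 10% FBS.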

tumor = assay: Antitumor activity compared with fangchinoline, overall statement; type: cell-based; details: tumor type not specified
[7] = system: A549 (human lung cancer) cells; assay: MTT cell growth inhibition, solid tumor cells; type: cell-based; details: Homo sapiens, A549, 72 h, MTT
In short: (§2)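 Seeding: 6000 cells/well, DMEM high glucose + 10% FBS, 24 h, 37 °C/5% CO2. Compound at graded concentrations, 72 h. Readout MTT (viable cells).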

[8] = system: MG-63 (osteosarcoma) cells; assay: MTT cell growth inhibition, solid tumor cells; type: cell-based; details: Homo sapiens, MG-63, 72 h, MTT
In short: as §2

[9] = system: RKO (human colon adenocarcinoma) cells; assay: MTT cell growth inhibition, solid tumor cells; type: cell-based; details: Homo sapiens, RKO, 72 h, MTT
In short: as §2

[10] = system: U87-MG (malignant glioma) cells; assay: MTT cell growth inhibition, solid tumor cells; type: cell-based; details: Homo sapiens, U-87 MG, U87-MG, 72 h, MTT
In short: as §2

[11] = system: Hep-2 (laryngeal carcinoma) cells; assay: MTT cell growth inhibition, solid tumor cells; type: cell-based; details: Homo sapiens, Hep-2, 72 h, MTT
In short: as §2

[12] = system: Hep G2 (human liver cancer) cells; assay: MTT cell growth inhibition, solid tumor cells; type: cell-based; details: Homo sapiens, HepG2, Hep G2, 72 h, MTT
In short: as §2

[13] = system: CaEs-17 (esophageal cancer) cells; assay: MTT cell growth inhibition, solid tumor cells; type: cell-based, human; details: Homo sapiens, CaEs17, CaEs-17, 72 h, MTT
In short: as §2

[14] = system: PC-3 (prostate cancer) cells; assay: MTT cell growth inhibition, solid tumor cells; type: cell-based, human; details: Homo sapiens, PC-3, 72 h, MTT
In short: as §2

[15] = system: CNE (nasopharyngeal carcinoma) cells; assay: MTT cell growth inhibition, solid tumor cells; type: cell-based, human; details: Homo sapiens, CNE, 72 h, MTT
In short: as §2

[16] = system: PANC-1 (pancreatic cancer) cells; assay: MTT cell growth inhibition, solid tumor cells; type: cell-based, human; details: Homo sapiens, PANC-1, 72 h, MTT
In short: as §2

[17] = system: SK-OV-3 (ovarian cancer) cells; assay: MTT cell growth inhibition, solid tumor cells; type: cell-based, human; details: Homo sapiens, SK-OV-3, 72 h, MTT
In short: as §2

IC50 ([1]; read-out: IC50): 0.33 µg/mL (≈ 0.431 µM)
IC90 ([1]; read-out: IC90): 1.32 µg/mL (≈ 1.72 µM)
IC50 ([2]; read-out: IC50): 0.26 µg/mL (≈ 0.34 µM)
IC90 ([2]; read-out: IC90): 2.14 µg/mL (≈ 2.8 µM)
IC50 ([3]; read-out: IC50): 0.59 µg/mL (≈ 0.771 µM)
IC90 ([3]; read-out: IC90): 1.24 µg/mL (≈ 1.62 µM)
IC50 ([4]; read-out: IC50): 0.85 µg/mL (≈ 1.11 µM)
IC90 ([4]; read-out: IC90): 3.04 µg/mL (≈ 3.97 µM)
IC50 ([5]; read-out: IC50): 2 µg/mL (≈ 2.61 µM)
IC90 ([5]; read-out: IC90): 3.77 µg/mL (≈ 4.93 µM)
IC50 ([6]; read-out: IC50): 0.13 µg/mL (≈ 0.17 µM)
IC90 ([6]; read-out: IC90): 0.48 µg/mL (≈ 0.627 µM)
IC50 ([7]; read-out: IC50): 1.85 µg/mL (≈ 2.42 µM)
IC90 ([7]; read-out: IC90): 3.48 µg/mL (≈ 4.55 µM)
IC50 ([8]; read-out: IC50): 2.4 µg/mL (≈ 3.14 µM)
IC90 ([8]; read-out: IC90): 3.9 µg/mL (≈ 5.1 µM)
IC50 ([9]; read-out: IC50): 1.15 µg/mL (≈ 1.5 µM)
IC90 ([9]; read-out: IC90): 2.23 µg/mL (≈ 2.91 µM)
IC50 ([10]; read-out: IC50): 1.34 µg/mL (≈ 1.75 µM)
IC90 ([10]; read-out: IC90): 3.24 µg/mL (≈ 4.23 µM)
IC50 ([11]; read-out: IC50): 3.66 µg/mL (≈ 4.78 µM)
IC90 ([11]; read-out: IC90): 6.4 µg/mL (≈ 8.36 µM)
IC50 ([12]; read-out: IC50): 1.39 µg/mL (≈ 1.82 µM)
IC90 ([12]; read-out: IC90): 3.74 µg/mL (≈ 4.89 µM)
IC50 ([13]; read-out: IC50): 1.84 µg/mL (≈ 2.4 µM)
IC90 ([13]; read-out: IC90): 3.86 µg/mL (≈ 5.04 µM)
IC50 ([14]; read-out: IC50): 2.95 µg/mL (≈ 3.85 µM)
IC90 ([14]; read-out: IC90): 5.02 µg/mL (≈ 6.56 µM)
IC50 ([15]; read-out: IC50): 3.3 µg/mL (≈ 4.31 µM)
IC90 ([15]; read-out: IC90): 6.6 µg/mL (≈ 8.62 µM)
IC50 ([16]; read-out: IC50): 1.61 µg/mL (≈ 2.1 µM)
IC90 ([16]; read-out: IC90): 5.52 µg/mL (≈ 7.21 µM)
IC50 ([17]; read-out: IC50): 2.99 µg/mL (≈ 3.91 µM)
IC90 ([17]; read-out: IC90): 6.81 µg/mL (≈ 8.9 µM)
SMILES: COc1ccc2cc1Oc1ccc(cc1)C[C@H]1c3cc(c(OC)cc3CCN1C)Oc1c(OC(=O)c3c(F)cccc3Cl)c(OC)cc3c1[C@H](C2)N(C)CC3 [BS-FC-315]
antitumor activity compared with that of fangchinoline (tumor): significantly superior
